{
  "source": "PubChem BioAssay AID1963986",
  "about": "(Molecular Pharmacology Branch, DTP, NCI, 2024);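 also: spheroids exposed to compound for 7 days before viability read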;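 as to viability, T/C: 100% = DMSO vehicle-treated spheroids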",
  "test_system": "171881-019-R-J1-PDC tumor spheroid viability",
  "experiment": "Anticancer human tumor 171881-019-R-J1-PDC patient-derived invasive breast carcinoma cell line growth inhibition [PI3K]",
  "settings": "spheroids with HUVEC and MSC; for IC50: curve of first compound; for viability, T/C: stronger effect = lower value",
  "how_it_was_run": "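Complex 3D spheroids (cancer cells + endothelial HUVEC + mesenchymal stem cells); drug pairs of targeted agent x inavolisib/alpelisib/duvelisib/copanlisib; half-log series from ~Cmax, max 10 microM if Cmax unknown; endpoint viability.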",
  "data": [
    {"smiles": "CNC(=O)c1ccc(N2C(=S)N(c3ccc(C#N)c(C(F)(F)F)c3)C(=O)C2(C)C)cc1F", "note": "+ CC(Nc1ncnc2nc[nH]c12)c1cc2cccc(Cl)c2c(=O)n1-c1ccccc1", "values": [
      {"measurement": "IC50", "setting": "second compound 0.0316 µM", "value": "> 10", "unit": "µM"},
      {"measurement": "IC50", "setting": "second compound 0.1 µM", "value": "> 10", "unit": "µM"},
      {"measurement": "IC50", "setting": "second compound 0.316 µM", "value": "> 10", "unit": "µM"},
      {"measurement": "IC50", "setting": "second compound 1 µM", "value": "> 10", "unit": "µM"},
      {"measurement": "IC50", "setting": "second compound 3.16 µM", "value": "> 10", "unit": "µM"},
      {"measurement": "IC50", "setting": "second compound 10 µM", "value": 4.88, "unit": "µM"},
      {"measurement": "viability, T/C", "setting": "second compound 0.0316 µM, first compound 0.0316 µM", "value": 91.6, "unit": "%"},
      {"measurement": "viability, T/C", "setting": "second compound 0.0316 µM, first compound 0.1 µM", "value": 78.6, "unit": "%"},
      {"measurement": "viability, T/C", "setting": "second compound 0.0316 µM, first compound 0.316 µM", "value": 80.1, "unit": "%"},
      {"measurement": "viability, T/C", "setting": "second compound 0.0316 µM, first compound 1 µM", "value": 86.4, "unit": "%"},
      {"measurement": "viability, T/C", "setting": "second compound 0.0316 µM, first compound 3.16 µM", "value": 86.1, "unit": "%"},
      {"measurement": "viability, T/C", "setting": "second compound 0.0316 µM, first compound 10 µM", "value": 71.2, "unit": "%"},
      {"measurement": "viability, T/C", "setting": "second compound 0.1 µM, first compound 0.0316 µM", "value": 88.8, "unit": "%"},
      {"measurement": "viability, T/C", "setting": "second compound 0.1 µM, first compound 0.1 µM", "value": 85.9, "unit": "%"},
      {"measurement": "viability, T/C", "setting": "second compound 0.1 µM, first compound 0.316 µM", "value": 78.5, "unit": "%"},
      {"measurement": "viability, T/C", "setting": "second compound 0.1 µM, first compound 1 µM", "value": 85.6, "unit": "%"},
      {"measurement": "viability, T/C", "setting": "second compound 0.1 µM, first compound 3.16 µM", "value": 83.3, "unit": "%"},
      {"measurement": "viability, T/C", "setting": "second compound 0.1 µM, first compound 10 µM", "value": 69.8, "unit": "%"},
      {"measurement": "viability, T/C", "setting": "second compound 0.316 µM, first compound 0.0316 µM", "value": 92.1, "unit": "%"},
      {"measurement": "viability, T/C", "setting": "second compound 0.316 µM, first compound 0.1 µM", "value": 93.3, "unit": "%"},
      {"measurement": "viability, T/C", "setting": "second compound 0.316 µM, first compound 0.316 µM", "value": 85.3, "unit": "%"},
      {"measurement": "viability, T/C", "setting": "second compound 0.316 µM, first compound 1 µM", "value": 92.4, "unit": "%"},
      {"measurement": "viability, T/C", "setting": "second compound 0.316 µM, first compound 3.16 µM", "value": 77, "unit": "%"},
      {"measurement": "viability, T/C", "setting": "second compound 0.316 µM, first compound 10 µM", "value": 69.9, "unit": "%"},
      {"measurement": "viability, T/C", "setting": "second compound 1 µM, first compound 0.0316 µM", "value": 89.9, "unit": "%"},
      {"measurement": "viability, T/C", "setting": "second compound 1 µM, first compound 0.1 µM", "value": 100, "unit": "%"},
      {"measurement": "viability, T/C", "setting": "second compound 1 µM, first compound 0.316 µM", "value": 85.2, "unit": "%"},
      {"measurement": "viability, T/C", "setting": "second compound 1 µM, first compound 1 µM", "value": 86.9, "unit": "%"},
      {"measurement": "viability, T/C", "setting": "second compound 1 µM, first compound 3.16 µM", "value": 93.1, "unit": "%"},
      {"measurement": "viability, T/C", "setting": "second compound 1 µM, first compound 10 µM", "value": 70.7, "unit": "%"},
      {"measurement": "viability, T/C", "setting": "second compound 3.16 µM, first compound 0.0316 µM", "value": 87.2, "unit": "%"},
      {"measurement": "viability, T/C", "setting": "second compound 3.16 µM, first compound 0.1 µM", "value": 85.9, "unit": "%"},
      {"measurement": "viability, T/C", "setting": "second compound 3.16 µM, first compound 0.316 µM", "value": 83.7, "unit": "%"},
      {"measurement": "viability, T/C", "setting": "second compound 3.16 µM, first compound 1 µM", "value": 80.1, "unit": "%"},
      {"measurement": "viability, T/C", "setting": "second compound 3.16 µM, first compound 3.16 µM", "value": 80.9, "unit": "%"},
      {"measurement": "viability, T/C", "setting": "second compound 3.16 µM, first compound 10 µM", "value": 64.5, "unit": "%"},
      {"measurement": "viability, T/C", "setting": "second compound 10 µM, first compound 0.0316 µM", "value": 61.4, "unit": "%"},
      {"measurement": "viability, T/C", "setting": "second compound 10 µM, first compound 0.1 µM", "value": 58.2, "unit": "%"},
      {"measurement": "viability, T/C", "setting": "second compound 10 µM, first compound 0.316 µM", "value": 60.4, "unit": "%"},
      {"measurement": "viability, T/C", "setting": "second compound 10 µM, first compound 1 µM", "value": 57.2, "unit": "%"},
      {"measurement": "viability, T/C", "setting": "second compound 10 µM, first compound 3.16 µM", "value": 54, "unit": "%"},
      {"measurement": "viability, T/C", "setting": "second compound 10 µM, first compound 10 µM", "value": 43.7, "unit": "%"}
    ]},
    {"smiles": "Cn1cnc2c(F)c(Nc3ccc(Br)cc3Cl)c(C(=O)NOCCO)cc21", "note": "+ CC(Nc1ncnc2nc[nH]c12)c1cc2cccc(Cl)c2c(=O)n1-c1ccccc1", "values": [
      {"measurement": "IC50", "setting": "second compound 0.0316 µM", "value": 0.628, "unit": "µM"},
      {"measurement": "IC50", "setting": "second compound 0.1 µM", "value": 0.664, "unit": "µM"},
      {"measurement": "IC50", "setting": "second compound 0.316 µM", "value": 0.547, "unit": "µM"},
      {"measurement": "IC50", "setting": "second compound 1 µM", "value": 0.423, "unit": "µM"},
      {"measurement": "IC50", "setting": "second compound 3.16 µM", "value": 0.143, "unit": "µM"},
      {"measurement": "IC50", "setting": "second compound 10 µM", "value": "< 0.00949", "unit": "µM"},
      {"measurement": "viability, T/C", "setting": "second compound 0.0316 µM, first compound 0.00949 µM", "value": 93.5, "unit": "%"},
      {"measurement": "viability, T/C", "setting": "second compound 0.0316 µM, first compound 0.03 µM", "value": 84, "unit": "%"},
      {"measurement": "viability, T/C", "setting": "second compound 0.0316 µM, first compound 0.0949 µM", "value": 89.2, "unit": "%"},
      {"measurement": "viability, T/C", "setting": "second compound 0.0316 µM, first compound 0.3 µM", "value": 63.5, "unit": "%"},
      {"measurement": "viability, T/C", "setting": "second compound 0.0316 µM, first compound 0.949 µM", "value": 42.2, "unit": "%"},
      {"measurement": "viability, T/C", "setting": "second compound 0.0316 µM, first compound 3 µM", "value": 19.5, "unit": "%"},
      {"measurement": "viability, T/C", "setting": "second compound 0.1 µM, first compound 0.00949 µM", "value": 87.3, "unit": "%"},
      {"measurement": "viability, T/C", "setting": "second compound 0.1 µM, first compound 0.03 µM", "value": 84.7, "unit": "%"},
      {"measurement": "viability, T/C", "setting": "second compound 0.1 µM, first compound 0.0949 µM", "value": 75, "unit": "%"},
      {"measurement": "viability, T/C", "setting": "second compound 0.1 µM, first compound 0.3 µM", "value": 70.8, "unit": "%"},
      {"measurement": "viability, T/C", "setting": "second compound 0.1 µM, first compound 0.949 µM", "value": 40.7, "unit": "%"},
      {"measurement": "viability, T/C", "setting": "second compound 0.1 µM, first compound 3 µM", "value": 18.3, "unit": "%"},
      {"measurement": "viability, T/C", "setting": "second compound 0.316 µM, first compound 0.00949 µM", "value": 96.6, "unit": "%"},
      {"measurement": "viability, T/C", "setting": "second compound 0.316 µM, first compound 0.03 µM", "value": 91, "unit": "%"},
      {"measurement": "viability, T/C", "setting": "second compound 0.316 µM, first compound 0.0949 µM", "value": 77.2, "unit": "%"},
      {"measurement": "viability, T/C", "setting": "second compound 0.316 µM, first compound 0.3 µM", "value": 63.2, "unit": "%"},
      {"measurement": "viability, T/C", "setting": "second compound 0.316 µM, first compound 0.949 µM", "value": 38.6, "unit": "%"},
      {"measurement": "viability, T/C", "setting": "second compound 0.316 µM, first compound 3 µM", "value": 17.5, "unit": "%"},
      {"measurement": "viability, T/C", "setting": "second compound 1 µM, first compound 0.00949 µM", "value": 88.9, "unit": "%"},
      {"measurement": "viability, T/C", "setting": "second compound 1 µM, first compound 0.03 µM", "value": 74.4, "unit": "%"},
      {"measurement": "viability, T/C", "setting": "second compound 1 µM, first compound 0.0949 µM", "value": 71.8, "unit": "%"},
      {"measurement": "viability, T/C", "setting": "second compound 1 µM, first compound 0.3 µM", "value": 57.9, "unit": "%"},
      {"measurement": "viability, T/C", "setting": "second compound 1 µM, first compound 0.949 µM", "value": 34.6, "unit": "%"},
      {"measurement": "viability, T/C", "setting": "second compound 1 µM, first compound 3 µM", "value": 15.4, "unit": "%"},
      {"measurement": "viability, T/C", "setting": "second compound 3.16 µM, first compound 0.00949 µM", "value": 74.4, "unit": "%"},
      {"measurement": "viability, T/C", "setting": "second compound 3.16 µM, first compound 0.03 µM", "value": 65.3, "unit": "%"},
      {"measurement": "viability, T/C", "setting": "second compound 3.16 µM, first compound 0.0949 µM", "value": 55.9, "unit": "%"},
      {"measurement": "viability, T/C", "setting": "second compound 3.16 µM, first compound 0.3 µM", "value": 40.5, "unit": "%"},
      {"measurement": "viability, T/C", "setting": "second compound 3.16 µM, first compound 0.949 µM", "value": 25.8, "unit": "%"},
      {"measurement": "viability, T/C", "setting": "second compound 3.16 µM, first compound 3 µM", "value": 9.87, "unit": "%"},
      {"measurement": "viability, T/C", "setting": "second compound 10 µM, first compound 0.00949 µM", "value": 46.2, "unit": "%"},
      {"measurement": "viability, T/C", "setting": "second compound 10 µM, first compound 0.03 µM", "value": 44.2, "unit": "%"},
      {"measurement": "viability, T/C", "setting": "second compound 10 µM, first compound 0.0949 µM", "value": 37.8, "unit": "%"},
      {"measurement": "viability, T/C", "setting": "second compound 10 µM, first compound 0.3 µM", "value": 31.2, "unit": "%"},
      {"measurement": "viability, T/C", "setting": "second compound 10 µM, first compound 0.949 µM", "value": 14.9, "unit": "%"},
      {"measurement": "viability, T/C", "setting": "second compound 10 µM, first compound 3 µM", "value": 4.91, "unit": "%"}
    ]}
  ]
}
